Data on 51 compounds can be found in ChEMBL document CHEMBL1154198, “Chemical genetics of Plasmodium falciparum” (Nature, 2010).

Test [1] concerns Plasmodium falciparum. The test is described as follows: ST_JUDE: Plasmodium falciparum K1 EC50 (uM) as measured by SYBR green dye. In kind it is functional, organism-based.
Test [2] deals with Plasmodium falciparum. The test is described as follows: ST_JUDE: Plasmodium falciparum 3D7 EC50 (uM) as measured by SYBR green dye. In kind it is functional, organism-based.

As to `COC(=O)c1c(N)n(-c2ccc(F)cc2F)c2nc3ccccc3nc12`, the results for the EC50 with Plasmodium falciparum [1] and in the test on Plasmodium falciparum [2] were 3.98 µM and 0.853 µM, respectively.
The corresponding values for `Brc1ccc(C2=CC(c3ccccc3)n3ncnc3N2)cc1` (configuration not stated) are above 15 µM and above 15 µM.
The like results for `CCOc1ccccc1/C=C/C(=O)Nc1ccc2nc(N3CCN(C)CC3)cc(C)c2c1` were, in that order, above 15 µM and 0.437 µM.
Turning to `CCOC(=O)c1cnc2ccc(OCC)cc2c1NCCc1ccccc1`, the concentration giving a half-maximal response (EC50) in the test on Plasmodium falciparum [1] and in the test with Plasmodium falciparum [2] was above 15 µM throughout.
Take `CCCCNc1nc(Nc2cccc(C)c2)c2cnn(-c3ccccc3)c2n1`: the EC50 was 7.9 µM in the test with Plasmodium falciparum [1] and above 15 µM in the test on Plasmodium falciparum [2].
Turning to `COc1ccc(C2Sc3ccccc3N=C3C2=C(O)c2ccccc23)cc1` (configuration not stated), the EC50 with Plasmodium falciparum [1] was 2.31 µM; in the test with Plasmodium falciparum [2] it was 1.74 µM.
Take `Cc1cccc2sc(N(Cc3cccnc3)C(=O)C3CCCCC3)nc12`: the EC50 in the test on Plasmodium falciparum [1] came to 2.42 µM; in the test with Plasmodium falciparum [2], 3.44 µM.
As to `C#CCOc1cc(Br)c(C2CC(=O)Nc3ccc4ccccc4c32)cc1OC` (configuration not stated), the EC50 turned out to be 2.96 µM in the test on Plasmodium falciparum [1] and 3.96 µM in the test with Plasmodium falciparum [2].
As to `CCCCN1COc2ccc3c(-c4ccccc4)cc(=O)oc3c2C1`, the EC50 with Plasmodium falciparum [1] was 0.598 µM; with Plasmodium falciparum [2], 1.92 µM.
With `Cc1cc(N2CCN(C)CC2)nc2ccc(NC(=S)NCCN3CCN(c4ccccc4F)CC3)cc12`, the values for the EC50 in the test with Plasmodium falciparum [1] and in the test with Plasmodium falciparum [2] were 6.21 µM and 2 µM, respectively.
For the compound `Cc1ccc(NC(=O)C2c3ccccc3C(=O)N(CC(C)C)C2c2cccs2)nc1` (configuration not stated), the EC50 stood at 1.43 µM with Plasmodium falciparum [1] and 1.32 µM in the test with Plasmodium falciparum [2].
`CCCOc1cc(Br)c(C2NC(S)=NC(c3ccccc3)=C2C(C)=O)cc1OCC` (configuration not stated): the EC50 was 4.24 µM with Plasmodium falciparum [1] and above 15 µM in the test with Plasmodium falciparum [2].
On to `O=C(N/N=C/c1ccc([N+](=O)[O-])o1)c1ccc(O)cc1` [NIFUROXAZIDE], for which the EC50 in the test on Plasmodium falciparum [1] is 3.77 µM; with Plasmodium falciparum [2], above 15 µM.
For the compound `CC(=O)N(C1=C(N2CCCCC2)C(=O)c2ccccc2C1=O)c1ccc(F)cc1`, the EC50 in the test with Plasmodium falciparum [1] was 3.89 µM; in the test on Plasmodium falciparum [2], 2.72 µM.
Consider `COc1ccccc1C(=O)N(Cc1cccnc1)c1nc2c(Cl)cccc2s1`, for which the EC50 in the test with Plasmodium falciparum [1] is 6.66 µM; with Plasmodium falciparum [2], above 15 µM.
The like results for `CC(=O)N1CCc2c(sc(NC(=O)c3ccc(C)c(C)c3)c2C(N)=O)C1` were, in that order, above 15 µM and above 15 µM.
In the case of `CCn1c2ccccc2c2cc(CN3CCN(Cc4cc(OC)ccc4O)CC3)ccc21`, the EC50 in the test on Plasmodium falciparum [1] came out at 1.22 µM; in the test on Plasmodium falciparum [2], 2.84 µM.
For `Cc1n(CC(O)COc2cccc(Cl)c2)c2ccccc2[n+]1C` (configuration not stated), the EC50 in the test on Plasmodium falciparum [1] and with Plasmodium falciparum [2] was above 15 µM each time.
Regarding `CCCC(=O)NC(c1ccc(OC)cc1)c1ccc2cccnc2c1O` (configuration not stated), the EC50 in the test with Plasmodium falciparum [1] worked out at 2.65 µM; in the test on Plasmodium falciparum [2], 1.65 µM.
For `COc1cccc2sc(N(Cc3cccnc3)C(=O)C3CCCCC3)nc12`, the EC50 with Plasmodium falciparum [1] and with Plasmodium falciparum [2] was above 15 µM throughout.
In the case of `Oc1c(C(Nc2ccccn2)c2ccccc2Br)cc(Cl)c2cccnc12` (configuration not stated), the EC50 in the test on Plasmodium falciparum [1] was above 15 µM; with Plasmodium falciparum [2] it was 2.13 µM.
As to `CCSc1ccc2ccccc2[n+]1CC`, the EC50 in the test with Plasmodium falciparum [1] is 0.259 µM; with Plasmodium falciparum [2], 0.416 µM.
For the compound `COc1ccc(Cl)c2sc(N(Cc3cccnc3)C(=O)c3ccc(C(C)=O)cc3)nc12`, the EC50 in the test on Plasmodium falciparum [1] stood at 3.86 µM; in the test with Plasmodium falciparum [2] it was 4.06 µM.
As for `COc1cccc(C2=C(C(C)=O)Sc3nncn3N2C(C)=O)c1`, the EC50 in the test with Plasmodium falciparum [1] was determined as 3.43 µM; in the test on Plasmodium falciparum [2] it was 3.01 µM.
`Oc1ccc(C(c2ccc(O)cc2)C(Cl)(Cl)Cl)cc1`: the EC50 in the test with Plasmodium falciparum [1] was found to be 3.6 µM; with Plasmodium falciparum [2], 3.95 µM.
The corresponding values for `Cc1ccccc1-c1cnc(-c2cccnc2)nc1C1CCN(C(=O)CCCc2cccs2)CC1` are 4.53 µM and 5.76 µM.
With `CC(C)CC(C)N1CCC(n2nccc2NC(=O)Nc2ccccc2Cl)CC1` (configuration not stated), the figures for the concentration giving a half-maximal response (EC50) in the test with Plasmodium falciparum [1] and in the test on Plasmodium falciparum [2] were above 15 µM and 8.23 µM, respectively.
Turning to `CCCOc1ccc(CSC2=NCCN2)cc1[N+](=O)[O-]`, the EC50 was found to be 6.96 µM in the test with Plasmodium falciparum [1] and 6.86 µM with Plasmodium falciparum [2].
Turning to `Cc1cccc(C)c1OCC(=O)N(Cc1ccc(C(C)C)cc1)Cc1ccco1`, the EC50 with Plasmodium falciparum [1] is above 15 µM; with Plasmodium falciparum [2], 4.79 µM.
Take `CCN(CC)CCNC(=O)c1cc2c(-c3cccc(OC)c3)nn(C)c2s1`: the EC50 in the test on Plasmodium falciparum [1] is above 15 µM; in the test with Plasmodium falciparum [2] it was 4.04 µM.
As for `CCO/C(O)=C1\C(C)=NC2=C(C(=O)CC(c3ccc(OC)c(OC)c3)C2)C1c1ccc(SC)cc1` (configuration not stated), the EC50 in the test with Plasmodium falciparum [1] amounted to 3.18 µM; with Plasmodium falciparum [2], 3.2 µM.
Regarding `COc1ccccc1N1CCN(Cc2cc(COC(C)C)c3cccnc3c2O)CC1`, the EC50 was above 15 µM in the test on Plasmodium falciparum [1] and 5.28 µM in the test on Plasmodium falciparum [2].
Take `Cc1ccc(Nc2cc(C)nc(Nc3ccc(NS(=O)(=O)c4ccc(Cl)cc4)cc3)n2)cc1`: the EC50 was above 15 µM with Plasmodium falciparum [1] and 0.432 µM in the test on Plasmodium falciparum [2].
Turning to `Oc1ccc(Cl)cc1CN1CCN(Cc2ccccc2)CC1`, the EC50 was 0.486 µM in the test on Plasmodium falciparum [1] and 1.02 µM in the test with Plasmodium falciparum [2].
For the compound `CC(C)=CCN1CCC(C(=O)Nc2ccc(-c3nc4ccccc4[nH]3)cc2)CC1`, the EC50 in the test with Plasmodium falciparum [1] was 6.76 µM; in the test on Plasmodium falciparum [2], 1.34 µM.
As to `CCCCOc1ccc(C(=O)Nc2ccccc2Oc2ccccc2)cc1`, the EC50 in the test on Plasmodium falciparum [1] was 1.75 µM; with Plasmodium falciparum [2] it was above 15 µM.
On to `C/C(Cl)=C\C[N+]1(C/C=C(\C)Cl)CCCCC1`, for which the EC50 in the test on Plasmodium falciparum [1] and with Plasmodium falciparum [2] was above 15 µM in each case.
Take `CCCOc1ccccc1C(=O)Nc1nonc1-c1ccc(OCC)c(OCC)c1`: the EC50 in the test on Plasmodium falciparum [1] was 0.595 µM; in the test on Plasmodium falciparum [2], above 15 µM.
For the compound `COc1ccc(CN2CCCN(C)CC2)cc1OCCC1CCCCN1C(=O)/C=C/c1cccs1` (configuration not stated), the EC50 was 1.48 µM in the test with Plasmodium falciparum [1] and 3.98 µM with Plasmodium falciparum [2].
The like results for `CCOC(=O)C1=C(CN(C)c2ccc(F)cc2)NC(=O)NC1c1ccc(F)cc1` (configuration not stated) were, in that order, 1.23 µM and 3.51 µM.
On to `CCN(CC)c1ccc(/C=N/NC(=O)c2cccc(NC(=O)c3ccc(C)cc3)c2)c(O)c1`, for which the figures for the EC50 in the test with Plasmodium falciparum [1] and in the test with Plasmodium falciparum [2] were above 15 µM and 5.46 µM, respectively.
The corresponding values for `COCCn1c(SCC(=O)Nc2cccc(F)c2)nc2c(c1=O)SC(C)C2` (configuration not stated) are above 15 µM and above 15 µM.
The corresponding values for `CCOC(=O)C(=O)Oc1cc2oc(C(=O)OCC)c(-c3nc4ccccc4s3)c(=O)c2cc1CC` are above 15 µM and above 15 µM.
Take `Oc1c(C(Nc2ccccn2)c2cccc(Cl)c2Cl)ccc2cccnc12` (configuration not stated): the EC50 is 2.44 µM with Plasmodium falciparum [1] and 1.77 µM with Plasmodium falciparum [2].
Turning to `CCOc1ccc(C2c3cccn3CCN2C(=O)Nc2cccc(C)c2)cc1` (configuration not stated), the EC50 in the test with Plasmodium falciparum [1] and in the test with Plasmodium falciparum [2] was above 15 µM throughout.
Consider `O=C(Nc1ccc(Cl)cc1C(=O)Nc1cccc(C(F)(F)F)c1)c1ccco1`, for which the EC50 with Plasmodium falciparum [1] and in the test on Plasmodium falciparum [2] was above 15 µM throughout.
In the case of `COC(=O)c1c(S(=O)(=O)NCc2ccccc2)sc2c1CCN(Cc1ccc(OC)cc1)C2`, the EC50 with Plasmodium falciparum [1] and in the test on Plasmodium falciparum [2] was above 15 µM in each case.
In the case of `COc1ccc(OC)c(C2CC(=O)C3=C(C2)NC(=O)CC3c2ccc(OC)c(OC)c2)c1` (configuration not stated), the values for the EC50 in the test with Plasmodium falciparum [1] and in the test with Plasmodium falciparum [2] were 3.79 µM and 2.41 µM, respectively.
The like results for `CCN(CC)CCn1c(=N)n(CC(O)COc2ccccc2C)c2ccccc21` (configuration not stated) were, in that order, 4.48 µM and 4.06 µM.
In the case of `Cc1c(C=O)c2ccccc2n1CC(=O)Nc1ccc(Br)c(Cl)c1`, the EC50 in the test with Plasmodium falciparum [1] turned out to be 0.891 µM; in the test on Plasmodium falciparum [2], 0.702 µM.
With `CCc1c(C)c2cc3c(c(C)c2oc1=O)OCN(CCc1ccccc1OC)C3`, the EC50 came out at 0.223 µM in the test with Plasmodium falciparum [1] and 0.757 µM with Plasmodium falciparum [2].
